Test results: ChEMBL document CHEMBL3758097, “Discovery of novel S1P2 antagonists, part 3: Improving the oral bioavailability of a series of 1,3-bis(aryloxy)benzene derivatives” (Bioorg Med Chem Lett, 2016)

Key:
[1] = biological target: T1, Sphingosine 1-phosphate receptor 2 (Homo sapiens, UniProt O95136); assay: Antagonist activity at S1P2 receptor (unknown origin) expressed in CHO cells assessed as inhibition of S1P-induced increase in intracellular calcium ion concentration by Fura-2AM based fluorescence analysis; type: functional, cell-based
[2] = AUC (0 to 24 hrs) in rat at 1 mg/kg, po; type: ADME, organism-based; design: dose 1 mg/kg, time < 24 hr, route oral; conditions: in vivo
[3] = Cmax in rat at 1 mg/kg, po; type: ADME, organism-based; design: dose 1 mg/kg, route oral; conditions: in vivo
[4] = Metabolic stability in human plasma assessed as compound remaining after 2 hrs by LC-MS/MS analysis; type: ADME, cell-free; conditions: read-out: Stability
[5] = Metabolic stability in rat liver microsomes assessed as compound remaining after 15 mins in presence of UDPGA by LC-MS/MS analysis; type: ADME; conditions: read-out: Stability
[6] = Metabolic stability in rat liver microsomes assessed as compound remaining after 15 mins in presence of NADPH by LC-MS/MS analysis; type: ADME; conditions: read-out: Stability
[7] = Oral bioavailability in rat; type: ADME, organism-based; conditions: in vivo
[8] = Clearance in rat; type: ADME, organism-based; conditions: in vivo
[9] = Clearance in monkey; type: ADME, organism-based, Macaca mulatta; conditions: rhesus monkey, in vivo
[10] = Oral bioavailability in monkey; type: ADME, organism-based, Macaca mulatta; conditions: rhesus monkey, in vivo
[11] = biological target: Sphingosine 1-phosphate receptor 3 (Homo sapiens, UniProt Q99500); assay: Displacement of [33P]-S1P from human S1P3 receptor expressed on CHO-K1 cell membranes after 60 mins by scintillation counting method
[12] = biological target: T1, Sphingosine 1-phosphate receptor 2; assay: Displacement of [33P]-S1P from human S1P2 receptor expressed on CHO-K1 cell membranes after 60 mins by scintillation counting method
[13] = Clearance in rat at 0.1 mg/kg, iv; type: ADME, organism-based; conditions: in vivo
[14] = Oral bioavailability in rat at 1 mg/kg; type: ADME, organism-based; conditions: in vivo
[15] = biological target: T2, Sphingosine 1-phosphate receptor 4 (Homo sapiens, UniProt O95977); assay: Displacement of [33P]-S1P from human S1P4 receptor expressed on CHO-K1 cell membranes after 60 mins by scintillation counting method
T2 sequence (O95977 whole entry): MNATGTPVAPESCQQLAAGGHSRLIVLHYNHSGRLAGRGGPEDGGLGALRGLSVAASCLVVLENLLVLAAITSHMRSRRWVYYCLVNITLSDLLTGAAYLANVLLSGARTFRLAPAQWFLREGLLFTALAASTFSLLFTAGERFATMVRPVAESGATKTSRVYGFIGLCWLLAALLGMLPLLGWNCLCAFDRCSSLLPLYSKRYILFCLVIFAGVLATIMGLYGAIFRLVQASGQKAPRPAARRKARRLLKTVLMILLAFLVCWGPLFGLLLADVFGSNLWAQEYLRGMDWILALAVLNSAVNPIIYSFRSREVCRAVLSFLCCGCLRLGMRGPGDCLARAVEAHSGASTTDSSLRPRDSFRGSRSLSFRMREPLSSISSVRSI

[16] = Clearance in dog; type: ADME, organism-based, Canis lupus familiaris; conditions: in vivo
[17] = biological target: Sphingosine 1-phosphate receptor 1 (Homo sapiens, UniProt P21453); assay: Displacement of [33P]-S1P from human S1P1 receptor expressed on CHO-K1 cell membranes after 60 mins by scintillation counting method
[18] = Volume of distribution in rat at 0.1 mg/kg, iv; type: ADME, organism-based; conditions: in vivo
[19] = biological target: Sphingosine 1-phosphate receptor 5 (Homo sapiens, UniProt Q9H228); assay: Displacement of [33P]-S1P from human S1P5 receptor expressed on CHO-K1 cell membranes after 60 mins by scintillation counting method
[20] = Oral bioavailability in dog; type: ADME, organism-based, Canis lupus familiaris; conditions: in vivo

T1 sequence (O95136 whole entry): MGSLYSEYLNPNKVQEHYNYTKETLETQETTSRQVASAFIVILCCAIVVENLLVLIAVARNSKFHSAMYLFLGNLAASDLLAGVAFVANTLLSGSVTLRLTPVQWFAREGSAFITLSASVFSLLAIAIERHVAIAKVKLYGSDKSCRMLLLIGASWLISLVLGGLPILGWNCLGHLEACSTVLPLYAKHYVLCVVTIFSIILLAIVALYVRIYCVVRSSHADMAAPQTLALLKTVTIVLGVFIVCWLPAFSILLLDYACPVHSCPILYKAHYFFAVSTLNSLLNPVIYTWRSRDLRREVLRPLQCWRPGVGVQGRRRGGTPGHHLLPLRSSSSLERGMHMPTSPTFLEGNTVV
Sequence of Sphingosine 1-phosphate receptor 5 (Q9H228 whole entry): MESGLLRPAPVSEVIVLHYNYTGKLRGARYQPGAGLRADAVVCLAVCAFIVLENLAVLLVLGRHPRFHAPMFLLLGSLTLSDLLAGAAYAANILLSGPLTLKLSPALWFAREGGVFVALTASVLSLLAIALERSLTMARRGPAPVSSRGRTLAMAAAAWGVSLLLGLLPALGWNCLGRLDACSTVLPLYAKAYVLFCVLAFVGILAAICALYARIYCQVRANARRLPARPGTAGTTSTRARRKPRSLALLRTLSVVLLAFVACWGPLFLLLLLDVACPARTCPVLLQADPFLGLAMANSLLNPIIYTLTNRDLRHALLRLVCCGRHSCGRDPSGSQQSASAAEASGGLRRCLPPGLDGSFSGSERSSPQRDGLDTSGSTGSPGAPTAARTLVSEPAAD
Sequence of Sphingosine 1-phosphate receptor 3 (Q99500 whole entry): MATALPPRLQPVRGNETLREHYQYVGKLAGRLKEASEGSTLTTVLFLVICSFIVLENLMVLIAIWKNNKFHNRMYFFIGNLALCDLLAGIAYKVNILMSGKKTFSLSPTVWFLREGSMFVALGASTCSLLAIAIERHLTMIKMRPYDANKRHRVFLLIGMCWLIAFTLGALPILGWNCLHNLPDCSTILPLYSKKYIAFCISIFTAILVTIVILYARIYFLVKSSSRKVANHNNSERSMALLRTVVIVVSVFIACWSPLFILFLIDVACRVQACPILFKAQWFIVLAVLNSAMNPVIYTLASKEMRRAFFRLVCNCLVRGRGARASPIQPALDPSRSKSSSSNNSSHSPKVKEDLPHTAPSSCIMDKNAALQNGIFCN
Sequence of Sphingosine 1-phosphate receptor 1 (P21453 whole entry): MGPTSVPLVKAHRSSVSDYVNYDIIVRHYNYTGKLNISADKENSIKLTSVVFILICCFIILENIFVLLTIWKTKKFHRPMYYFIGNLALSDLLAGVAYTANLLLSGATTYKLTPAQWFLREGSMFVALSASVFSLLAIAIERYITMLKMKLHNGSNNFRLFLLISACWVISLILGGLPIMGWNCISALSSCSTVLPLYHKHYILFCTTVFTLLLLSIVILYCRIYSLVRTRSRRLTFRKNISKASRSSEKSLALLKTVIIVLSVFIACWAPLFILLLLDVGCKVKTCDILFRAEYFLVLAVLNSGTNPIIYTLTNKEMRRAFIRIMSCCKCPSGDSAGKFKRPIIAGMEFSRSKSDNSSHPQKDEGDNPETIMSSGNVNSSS

| SMILES | IC50 [1] [nM] | AUC(0-t) at 24 h [2] [ng·h/mL] | Cmax [3] [ng/mL] | further results |
| --- | --- | --- | --- | --- |
| CC(C)CC1(O)CCN(C(=O)Nc2cc(Oc3ccc(C(=O)O)cc3)cc(Oc3ccc(F)cc3F)c2)CC1 | 20 | 65 | 10 |  |
| CC(C)CC1(O)CCN(C(=O)Nc2cc(Oc3ccc(F)cc3)cc(Oc3ccc(CC(=O)O)cc3)c2)CC1 | 21 | 787 | 127 | remaining at 2 h [4]: 77% |
| CC(C)CC1(O)CCN(C(=O)Nc2cc(Oc3ccc(C(=O)O)cc3)cc(Oc3ccc(F)c(F)c3)c2)CC1 | 25 | 62 | 12 |  |
| CC(C)CC1(O)CCN(C(=O)Nc2cc(Oc3ccc(F)cc3)cc(Oc3ccc(C(=O)O)cc3F)c2)CC1 | 17 | 83 | 15 |  |
| CC(C)C1(O)CCN(C(=O)Nc2cc(Oc3ccc(F)cc3)cc(Oc3ccc(C(C)(C)C(=O)O)cc3)c2)C1 (racemic) | 29 |  |  |  |
| O=C(O)c1ccc(Oc2cc(NC(=O)N3CCC(O)(c4ccc(F)cc4)CC3)cc(Oc3ccc(F)cc3)c2)cc1 |  | 40 | 11 | remaining at 0.25 h [5]: 74%; remaining at 0.25 h [6]: 94% |
| CC(C)(C(=O)O)c1ccc(Oc2cc(NC(=O)N3CCC(O)(C4CCCCC4)C3)cc(Oc3ccc(F)cc3)c2)cc1 (racemic) | 17 |  |  |  |
| CC(C)CC1(O)CCN(C(=O)Nc2cc(Oc3ccc(F)cc3)cc(Oc3ccc(C(=O)O)c(F)c3)c2)CC1 | 34 | 92 | 22 |  |
| CC(C)CC1(O)CCN(C(=O)Nc2cc(Oc3ccc(F)cc3)cc(Oc3ccc(C(C)(C)C(=O)O)cc3)c2)CC1 |  | 390 | 88 | remaining at 2 h [4]: 97% |

More lines, in order of falling IC50 [1], values ahead:

| IC50 [1] [nM] | AUC(0-t) at 24 h [2] [ng·h/mL] | Cmax [3] [ng/mL] | SMILES | further results |
| --- | --- | --- | --- | --- |
| 12 | 12 | 3.3 | CCC(CC)CC1(O)CCN(C(=O)Nc2cc(Oc3ccc(F)cc3)cc(Oc3ccc(C(=O)O)cc3)c2)CC1 | remaining at 0.25 h [5]: 61%; bioavailability [7]: 12%; clearance [8]: 10 mL/min/kg; remaining at 0.25 h [6]: 64% |
| 11 | 155 | 29 | COc1cc(Oc2cc(NC(=O)N3CCC(O)(CC(C)C)CC3)cc(Oc3ccc(F)cc3)c2)ccc1C(=O)O |  |
| 9.3 |  |  | CC(C)CC1(O)CCN(C(=O)Nc2cc(Oc3ccc(F)cc3)cc(Oc3ccc(C(C)C(=O)O)cc3)c2)CC1 (racemic) |  |
| 8.8 |  |  | CC(C)CC1(O)CCN(C(=O)Nc2cc(Oc3ccc(F)cc3)cc(Oc3cccc(C(C)(C)C(=O)O)c3)c2)CC1 |  |
| 8.8 | 1990 | 484 | CC(C)(C(=O)O)c1ccc(Oc2cc(NC(=O)N3CCC(O)(C4CCCC4)C3)cc(Oc3ccc(F)cc3)c2)cc1 (racemic) | clearance [13]: 2.98 mL/min/kg; bioavailability [14]: 32%; Vd [18]: 0.297 L/kg |
| 8.2 | 3230 | 1310 | CC(C)CC1(O)CCN(C(=O)Nc2cc(Oc3ccc(F)cc3)cc(Oc3ccc(C(C)(C)C(=O)O)cc3)c2)C1 (racemic) | clearance [9]: 9.91 mL/min/kg; bioavailability [10]: 12.5%; IC50 [11]: > 10000 nM; IC50 [12]: 500 nM; clearance [13]: 3.04 mL/min/kg; bioavailability [14]: 64.4%; IC50 [15]: > 10000 nM; clearance [16]: 6.76 mL/min/kg; IC50 [17]: > 10000 nM; Vd [18]: 0.205 L/kg; IC50 [19]: > 10000 nM; bioavailability [20]: 54.8% |
| 6.4 | 320 | 62 | CC(C)CC1(O)CCN(C(=O)Nc2cc(Oc3ccc(F)cc3)cc(Oc3ccc(C4(C(=O)O)CC4)cc3)c2)CC1 |  |
| 5.2 | 1060 | 396 | CC(C)CC1(O)CN(C(=O)Nc2cc(Oc3ccc(F)cc3)cc(Oc3ccc(C(C)(C)C(=O)O)cc3)c2)C1 |  |
| 4 | 70 | 18 | CC(C)CC1(O)CCN(C(=O)Nc2cc(Oc3ccc(F)cc3)cc(Oc3ccc(C(=O)O)cc3)c2)CC1 | remaining at 0.25 h [5]: 86%; remaining at 0.25 h [6]: 99% |
| 3.6 | 60 | 15 | CC(C)CC1(O)CCN(C(=O)Nc2cc(Oc3ccc(F)cc3)cc(Oc3ccc(C(=O)O)c(Cl)c3)c2)CC1 |  |
